Key:
[1] = xn = mol fraction of the nth substance listed; conditions: 100.8 kPa, Liquid
[2] = refractive index (Na D-line) (dimensionless); xn = mol fraction of the nth substance listed; conditions: 100.8 kPa, Liquid, Standard Abbe refractometry

CC(C)OC(C)C [diisopropyl ether] + CCO
Conditions	mass density, 288.15 K [kg/m3]	mass density, 298.15 K [kg/m3]	mass density, 308.15 K [kg/m3]	refractive index, 288.15 K	refractive index, 298.15 K	refractive index, 308.15 K	viscosity, 288.15 K [mPa·s]	viscosity, 298.15 K [mPa·s]	viscosity, 308.15 K [mPa·s]
[1], x1 = 0.05	788.3	779.8	771	–	–	–	1.176	0.976	0.815
[1], x1 = 0.1	783.4	774.8	765.8	–	–	–	1.047	0.876	0.737
[1], x1 = 0.15	778.8	770	760.9	–	–	–	0.946	0.793	0.671
[1], x1 = 0.2	774.7	765.7	756.4	–	–	–	0.851	0.718	0.613
[1], x1 = 0.25	770.7	761.4	752	–	–	–	0.772	0.655	0.562
[1], x1 = 0.3	766.9	757.5	747.9	–	–	–	0.705	0.605	0.52
[1], x1 = 0.35	763.3	753.9	744.2	–	–	–	0.649	0.559	0.484
[1], x1 = 0.4	760	750.4	740.7	–	–	–	0.6	0.519	0.452
[1], x1 = 0.45	756.9	747.1	737.3	–	–	–	0.559	0.487	0.427
[1], x1 = 0.5	753.8	744.1	734.1	–	–	–	0.523	0.457	0.403
[1], x1 = 0.55	751	741.2	731.1	–	–	–	0.494	0.432	0.382
[1], x1 = 0.6	748.3	738.4	728.3	–	–	–	0.467	0.413	0.364
[1], x1 = 0.65	745.7	735.8	725.6	–	–	–	0.445	0.393	0.349
[1], x1 = 0.7	743.2	733.2	723	–	–	–	0.424	0.378	0.335
[1], x1 = 0.75	740.7	730.7	720.5	–	–	–	0.407	0.363	0.325
[1], x1 = 0.8	738.3	728.3	718	–	–	–	0.393	0.349	0.315
[1], x1 = 0.85	735.8	725.8	715.5	–	–	–	0.379	0.338	0.306
[1], x1 = 0.9	733.5	723.4	713.1	–	–	–	0.367	0.33	0.298
[1], x1 = 0.95	731.1	720.9	710.6	–	–	–	0.367	0.319	0.29
[1], x1 = 1	729	718.6	707.9	–	–	–	0.347	0.313	0.283
[2], x1 = 0.05	–	–	–	1.3657	1.36097	1.35649	–	–	–
[2], x1 = 0.1	–	–	–	1.36697	1.36212	1.35757	–	–	–
[2], x1 = 0.15	–	–	–	1.368	1.36316	1.35852	–	–	–
[2], x1 = 0.2	–	–	–	1.36883	1.36395	1.35926	–	–	–
[2], x1 = 0.25	–	–	–	1.36952	1.36457	1.3598	–	–	–
[2], x1 = 0.3	–	–	–	1.37013	1.36509	1.36021	–	–	–
[2], x1 = 0.35	–	–	–	1.37062	1.3655	1.36057	–	–	–
[2], x1 = 0.4	–	–	–	1.37102	1.36587	1.36083	–	–	–
[2], x1 = 0.45	–	–	–	1.37134	1.36612	1.36102	–	–	–
[2], x1 = 0.5	–	–	–	1.37158	1.36632	1.36113	–	–	–
[2], x1 = 0.55	–	–	–	1.37175	1.36644	1.36119	–	–	–
[2], x1 = 0.6	–	–	–	1.3719	1.36651	1.36118	–	–	–
[2], x1 = 0.65	–	–	–	1.37197	1.36652	1.36116	–	–	–
[2], x1 = 0.7	–	–	–	1.37196	1.36651	1.36112	–	–	–
[2], x1 = 0.75	–	–	–	1.37192	1.36645	1.36103	–	–	–
[2], x1 = 0.8	–	–	–	1.37188	1.36635	1.36089	–	–	–
[2], x1 = 0.85	–	–	–	1.37178	1.36621	1.36071	–	–	–
[2], x1 = 0.9	–	–	–	1.37162	1.36597	1.36042	–	–	–
[2], x1 = 0.95	–	–	–	1.37141	1.36566	1.36	–	–	–
[2], x1 = 1	–	–	–	1.37126	1.36537	1.35954	–	–	–

— the NIST ThermoML archive (doi:10.1021/je050031f)
